Measurements: patent publication US20210403415A1, “COMPOUNDS AND METHODS TO ATTENUATE TUMOR PROGRESSION AND METASTASIS” (THE TRUSTEES OF INDIANA UNIVERSITY, priority 2018, published 2021)

Assays:
[1] = biological target: TEAD4 (Homo sapiens, UniProt Q15561); assay: Covalent streptavidin pull down of myc-TEAD4 from HEK293 cell lysates; type: cell-based; design: expressed in transfected cells; host or cells: HEK293; conditions: higher concentrations, with compound 9
Protocol: HEK293 cells transfected with the myc-TEAD4 construct were grown for 48 h and then treated with DMSO or with 25 μM of compound 2 for an additional 48 h. Cells were then harvested in lysis buffer (50 mM Tris-HCl, pH 7.3, 150 mM NaCl, 0.5 mM EDTA, 1% Triton X-100, PhosSTOP phosphatase inhibitor cocktail, and EDTA-free protease inhibitors cocktail). Cell lysates containing 2 mg of protein were incubated with the indicated compounds or DMSO for 24 h. Extracts were then incubated with Dynabeads M-280 Streptavidin (Sigma-Aldrich) for 2 h at 4° C. Dynabeads were then washed and bound proteins were denatured and eluted according to the manufacturer's instructions. Relative levels of myc-TEAD4 from each complex were measured by immunoblot analysis with the anti-c-Myc antibody (1:5,000, Sigma-Aldrich).

[2] = tested on: human astrocytes; assay: MTS viability of normal astrocytes; type: cell-based; conditions: 10 μM, 72 h
Protocol: Hippo signaling promotes tumor growth and invasion in a range of cancers including GBM. We investigated the effects of compounds 1, 2, and 5 on GBM cell viability using patient-derived GBM43 cells that were grown as three-dimensional spheroids (FIG. 8A). […] The potency of compounds 2 and 6 were compared to temozolomide, which is the standard of care for patients with glioblastoma. […] FIG. 11 illustrates the following: human astrocytes cells were plated 24 h before treatment in collagen I coated 96-well plates in Dulbecco's modified Eagle's medium, supplemented with 20 μg/mL insulin, 5 μg/mL N-acetylcysteine, 10% fetal bovine serum, 10 μM hydrocortisone and antibiotics; then treated with DMSO or TED-347 at indicated concentrations for 72 h at 37° C. and 5% CO2 in a humidified incubator. Stock MTS (Promega) solution (20 μL per 100 μL medium) was added to all wells of an assay, and plates were incubated at 37° C. for 4 h, and read on a BioTek Synergy 2 reader, using a test wavelength of 490 nm; mean±s.d.; n=2 replicates.

[3] = tested on: patient-derived GBM43 glioblastoma spheroids; assay: GBM43 spheroid viability (Alamar blue); type: cell-based, human; conditions: for cytotoxicity at 10 µM: Homo sapiens, GBM43 cell, read-out: inhibition of GBM43 cell viability; for effect on GBM43 cancer cell viability / growth: three-dimensional spheroids
Protocol: Early-passage GBM43 cells were cultured in ultralow adherence plates (Corning Inc.) at 1 to 2×10^3 cells/mL in DMEM supplemented with 1% […] (Invitrogen), 2% B27 (Invitrogen), 25 ng/mL epidermal growth factor (EGF, 25 ng/mL fibroblast growth factor (FGF) (R&D Systems, Inc.), […], 2 ng/mL platelet growth factor, and 100 ng/mL each of penicillin and streptomycin (Invitrogen Inc.). Individual cells were recovered from spheres by incubation with Accutase (Sigma-Aldrich) for 10-15 minutes. Cells (50-100/well) were then seeded in fresh sphere-forming media in 96-well plates. After 2-3 days, Neurospheres containing 6 to 8 cells were treated with compounds 1, 2, and 5.
HEK-293 were cultured in DMEM with glutamine (Cellgro, Manassas, Va.) supplemented with 10% FBS and 1% penicillin/streptomycin in a 5% CO2 atmosphere at 37° C. Tumors were expanded by passage in the flank of NOD/SCIDγnull mice. To generate GBM43 cell lines, tumors were harvested, disaggregated, and maintained in 2.5% FBS for 14 days on Matrigel-coated plates (BD Biosciences) to remove murine fibroblasts. In-vitro GBM43 cell lines were propagated in DMEM with 10% FBS for no more than 7 passages. Cell line identity was confirmed by DNA fingerprint analysis (IDEXX BioResearch) for species and baseline short-tandem repeat analysis testing. GBM43 spheroids were generated by plating early-passage cells at 2.5×10^4 cells per well in 96-well ultralow attachment plates (Corning Inc.) in DMEM/F12 (1:1; GIBCO) supplemented with 2% B27 supplement (GIBCO), 20 ng/mL epidermal growth factor (EGF), and 20 ng/mL fibroblast growth factor (FGF) (Peprotech) for 2 days. The spheroids were then treated with compounds 1, 2, and 5 and growth analyzed by Alamar blue staining.

[4] = biological target: TEAD4.Yap1 interaction (Homo sapiens, UniProt Q15561); assay: Fluorescence polarization, GST-TEAD4 with FAM-Yap60-99 peptide; type: binding; design: TEAD4 (217-434), TEAD4 (217-434) Cys367Ser mutant and Yap1 (Full-length) were expressed as GST-fusion proteins; made in house; host or cells: E. coli BL-21 (DE3), pGEX-6P-1; conditions: for inhibition / maximum inhibition of TEAD4.Yap1 interaction: 24 h incubation at 4° C.; for t1/2^∞ (half-life of inactivation): corresponding to kinact
Protocol: GST-TEAD4, GST-TEAD4 Cys367Ser mutant or HIS-TEAD2 interaction with Yap1 was investigated using a fluorescently-labeled peptide (FAM-Yap60-99), consisting of FAM-labeled TEAD-binding peptide fragment of Yap1 (FAM-[…] TVPMCLRKLPASFCKPP), which has a disulfide bridge (American Peptide, Sunnyvale, Calif.). Addition of FAM-Yap60-99 to the TEAD was followed by measurement of changes in polarization. 40 μL of 125 nM GST-TEAD4 WT or GST-TEAD4 Cys367Ser in assay buffer (PBS with 0.01% v/v Triton-X100) or 40 μL of 64 nM HIS-TEAD2 was added to a 384-well black polystyrene plate (Cat. No. 262260; Nunc, Roskilde, Denmark) and incubated with 5 μL of […] serially diluted compounds in assay buffer supplemented with 20% v/v DMSO for 24 h at 4° C. Finally, 5 μL of 160 nM FAM-Yap60-99 peptide was added, the plate centrifuged, and the polarization was measured on an Envision Multilabel Plate Reader (PerkinElmer, Waltham, Mass.) using a filter set with excitation and emission wavelengths of 485 and 535 nm, respectively. Percent inhibition was calculated as relative to a minimum inhibition control, which is without compound, and a maximum inhibition control, which is without a TEAD.
For the determination of the inhibition efficiency kinact/K1, the protein compound incubation time was varied between […], prior to the addition of the FAM-Yap60-99 peptide and fluorescence polarization measurements. The progressive decrease in TEAD activities were plotted against time for all 10 concentrations ([…]) of the compounds and the observed rate of inhibition (kobs) was calculated by fitting a simple exponential function.
The observed rate of inhibition was then plotted against the concentration of the compound and a […] function kobs=kinact[Inhibitor]/K1+[Inhibitor] was fitted to determine the kinact and K1 values.

TEAD4.Yap1 interaction, sequence (Q15561 217-434): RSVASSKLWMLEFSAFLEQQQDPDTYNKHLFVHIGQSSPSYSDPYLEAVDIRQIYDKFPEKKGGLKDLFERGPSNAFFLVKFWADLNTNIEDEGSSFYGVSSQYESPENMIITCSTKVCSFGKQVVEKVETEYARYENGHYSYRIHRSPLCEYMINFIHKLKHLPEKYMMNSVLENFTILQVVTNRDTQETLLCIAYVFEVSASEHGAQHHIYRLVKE
TEAD4, sequence (Q15561 whole entry): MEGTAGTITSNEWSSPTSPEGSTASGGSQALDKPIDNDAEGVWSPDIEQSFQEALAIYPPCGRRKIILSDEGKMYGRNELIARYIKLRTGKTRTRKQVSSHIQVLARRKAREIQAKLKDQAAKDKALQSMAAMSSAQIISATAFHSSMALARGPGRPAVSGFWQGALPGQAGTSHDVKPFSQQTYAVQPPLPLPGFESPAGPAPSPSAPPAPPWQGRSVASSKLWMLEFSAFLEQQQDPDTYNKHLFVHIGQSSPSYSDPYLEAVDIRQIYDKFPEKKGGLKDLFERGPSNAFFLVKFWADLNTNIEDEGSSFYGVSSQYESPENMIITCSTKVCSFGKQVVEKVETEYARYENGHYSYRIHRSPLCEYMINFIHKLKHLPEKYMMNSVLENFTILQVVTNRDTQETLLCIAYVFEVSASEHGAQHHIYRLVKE

Compound	competition with compound 9 for binding to TEAD4 [1]	effect on cell viability of non-transformed normal astrocytes [2]	cytotoxicity at 10 µM [3] [%]	effect on GBM43 cancer cell viability / growth [3]	reversibility of inhibition after dialysis ([4]; 50 μM, 24 h at 4° C., then dialyzed against buffer 24 h at 4° C.)	inhibition / maximum inhibition of TEAD4.Yap1 interaction [4] [%]	maximum inhibition of TEAD4 ([4]; 48 h incubation at 4° C.) [%]	t1/2^∞ (half-life of inactivation) [4] [h]
O=C(CCl)c1ccccc1Nc1cccc(C(F)(F)F)c1 [Compound 2, 2-chloro-1-(2-((3-(trifluoromethyl)phenyl)amino)phenyl)ethanone]	compete with compound 9 for binding to TEAD4	did not show any effect	30	inhibited GBM43 cancer cell viability	irreversible inhibitor	53	80	18.2
O=C(CCl)c1ncccc1Nc1cccc(C(F)(F)F)c1 [Compound 5, 2-chloro-1-(3-((3-(trifluoromethyl)phenyl)amino)pyridin-2-yl)ethanone]	compete with compound 9 for binding to TEAD4		30	inhibited GBM43 cancer cell viability		81		14.3
